Results taken from patent US9936700B2, “Substituted quinoxaline derivatives as pest control agent” (BAYER CROPSCIENCE AKTIENGESELLSCHAFT, priority 2013, dated 2018).
Where two headings read alike, the source gives them in different places.

Assays:
[1] = log P by reversed-phase HPLC (EEC Directive 79/831 Annex V.A8); type: physicochemical; conditions: for chromatographic logP: reversed-phase C18 HPLC column
Source text: NMR data and log P values: log P (HCOOH)=log P[a] log P (neutral)=log P[b]
^[a] […] Called log P (HCOOH) in the table.
^[b] […] Called log P (neutral) in the table.

Aphis gossypii = Aphis gossypii spray test; type: in vivo; conditions: cotton plants, after 6 days
Experimental: Aphis gossypii—spray test
(§1) • Solvent: 7 parts by weight of dimethylformamide • Emulsifier: alkylaryl polyglycol ether
(§2) To produce further test concentrations, the preparation is diluted with emulsifier-containing water. If the addition of ammonium salts or/and penetrants is required, these are each added in a concentration of 1000 ppm to the formulation solution.
After 6 days, the kill in % is determined. 100% means that all the aphids have been killed; 0% means that no aphids have been killed.

Myzus persicae = Myzus persicae spray test (MYZUPE); type: in vivo; conditions: Chinese cabbage leaf discs, after 6 days
Experimental: Myzus persicae—spray test (MYZUPE)
• Solvent: 78 parts by weight of acetone • 1.5 parts by weight of dimethylformamide • Emulsifier: 0.5 part by weight of alkylaryl polyglycol ether
After 6 days, the efficacy in % is determined. 100% means that all the aphids have been killed; 0% means that no aphids have been killed.

Tetranychus urticae = Tetranychus urticae spray test, OP-resistant (TETRUR); type: in vivo; conditions: 500 g/ha, bean leaf discs, after 6 days
Experimental: Tetranychus urticae—spray test, OP-resistant (TETRUR)
(§3) • Solvent: 78.0 parts by weight of acetone • 1.5 parts by weight of dimethylformamide • Emulsifier: 0.5 part by weight of alkylaryl polyglycol ether
After 6 days, the efficacy in % is determined. 100% means that all the spider mites have been killed; 0% means that no spider mites have been killed.

Nilaparvata lugens = Nilaparvata lugens spray test (solvent dimethylformamide, 7 days); type: in vivo; conditions: rice plants, after 7 days
Experimental: Nilaparvata lugens—spray test
If the addition of ammonium salts or/and penetrants is required, these are each added in a concentration of 1000 ppm to the formulation solution.
After 7 days, the efficacy in % is determined.

Bemisia tabaci = Bemisia tabaci spray test; type: in vivo; conditions: 100 ppm, cotton plants, after 8 days
Experimental: Bemisia Tabaci—Spray Test
as §1, §2
After 8 days, the efficacy in % is determined. 100% means that all the whiteflies have been killed; 0% means that none of the whiteflies have been killed.

Haemonchus contortus = Haemonchus contortus test (HAEMCO); type: in vivo; conditions: after 5 days
Source text: Haemonchus contortus-test ([…]) • Solvent: dimethyl sulfoxide […] Vessels containing the active compound preparation of the desired concentration are populated with about 40 larvae of the red stomach worm (Haemonchus contortus).

Phaedon cochleariae = Phaedon cochleariae spray test (PHAECO); type: in vivo; conditions: 500 g/ha, Chinese cabbage leaf discs, after 7 days
Experimental: Phaedon cochleariae—spray test (PHAECO)
as §3
After 7 days, the efficacy in % is determined. 100% means that all the beetle larvae have been killed; 0% means that no beetle larvae have been killed.

Cooperia curticei = Cooperia curticei test (COOPCU); type: in vivo; conditions: after 5 days
Experimental: Cooperia curticei test (COOPCU)
• Solvent: dimethyl sulfoxide
To produce a suitable preparation of active compound, 10 mg of active compound are mixed with 0.5 ml of dimethyl sulfoxide and the concentrate is diluted with “Ringer's solution” to the desired concentration.
Vessels containing the active compound preparation of the desired concentration are populated with about 40 nematode larvae (Cooperia curticei).
After 5 days, the kill in % is determined. 100% means that all the larvae have been killed; 0% means that none of the larvae have been killed.

Spodoptera frugiperda = Spodoptera frugiperda spray test (SPODFR); type: in vivo; conditions: 500 g/ha, maize leaf discs, after 7 days
Experimental: Spodoptera frugiperda—spray test (SPODFR)
• Solvent: 78.0 parts by weight of acetone • 1.5 parts by weight of dimethylformamide • Emulsifier: 0.5 parts by weight of alkylaryl polyglycol ether
After 7 days, the efficacy in % is determined. 100% means that all the caterpillars have been killed; 0% means that no caterpillars have been killed.

[2] = system: Nippostrongylus brasiliensis; conditions: 10 ppm, adult worms, 37° C., OD at 405 nm versus negative control
Experimental: Nippostrongylus brasiliensis test (NIPOBR)
Test method for in vitro experiments with Nippostrongylus brasiliensis
Adult Nippostrongylus brasiliensis is isolated from the small intestine of female Wistar rats and transferred into buffer solution containing 100 U/ml penicillin, 0.1 mg/ml streptomycin and 2.5 μg/ml amphotericin B.
The incubation of the worms (both sexes) is carried out in 1.0 ml of the medium also used for determining the acetylcholinesterase activity.
The compounds are dissolved in DMSO and added to the incubation medium such that final concentrations of 10 and 1 μg/ml, respectively, are present. The controls contain only DMSO.
Incubation is carried out at 37° C. and 5% CO2.
The enzyme determination is carried out using an aliquot of the medium. The AChE to be measured cleaves the substrate acetylthiocholine iodide (which is present as the iodide salt) into the products acetate and thiocholine.
In the subsequent reaction, thiocholine forms, with dithionitrobenzoic acid (DTNB, Ellman's reagent), a yellow dye (thionitrobenzoate).
The intensity of the color (=activity of AChE) is determined via the optical density (OD) photometrically at 405 nm and compared to the OD of the negative control.

Boophilus microplus = Boophilus microplus test (BOOPMI injection); type: in vivo; conditions: 20 μg/animal, injection into the abdomen, after 7 days
Experimental: Boophilus microplus test (BOOPMI injection) • Solvent: dimethyl sulfoxide To produce a suitable preparation of active compound, 10 mg of active compound are mixed with 0.5 ml of solvent and the concentrate is diluted with solvent to the desired concentration. The active compound solution is injected into the abdomen (Boophilus microplus), and the animals are transferred into dishes and stored in a climate-controlled room. Efficacy is assessed after 7 days by laying of fertile eggs. Eggs which are not visibly fertile are stored in a climate-controlled cabinet until the larvae hatch after about 42 days.

[3] = acidic range, pH 2.7, 0.1% aqueous formic acid/acetonitrile
[4] = neutral range, pH 7.8, aqueous ammonium hydrogencarbonate/acetonitrile
[5] = acidic range, pH 2.7, 0.1% aqueous formic acid/acetonitrile, read-out: logP [a] = log P (HCOOH)

## COc1cnccc1-c1cnc2ccc(C(F)(F)F)cc2n1 [Example I-62]
[1]; pH 2.7
  logP [a] = log P (HCOOH): 2.60
Aphis gossypii; 100 ppm
  efficacy (kill of aphids): 97%
Myzus persicae; 100 g/ha
  efficacy (aphids killed): 90%

## Cc1cnccc1-c1cnc2cc(F)c(F)cc2n1 [Example I-63]
[1]; pH 2.7
  logP [a] = log P (HCOOH): 1.55
Myzus persicae; 500 g/ha
  efficacy (aphids killed): 90%

## CC[S+]([O-])c1ccccc1-c1cnc2cc(Cl)ccc2n1 (centres unmarked) [Example I-31]
[1]; pH 2.7
  logP [a] = log P (HCOOH): 2.66
[1]; pH 7.8
  logP [b] = log P (neutral): 2.65
Myzus persicae; 500 g/ha
  efficacy (aphids killed): 90%

## FC(F)(F)c1ccc2nc(-c3ccccn3)cnc2c1 [Example I-18]
Tetranychus urticae
  efficacy (spider mites killed): 90%
[1]; [3]
  logP [a] = log P (HCOOH): 3.72
[1]; [4]
  logP [b] = log P (neutral): 3.75
Myzus persicae; 500 g/ha
  efficacy (aphids killed): 90%

## Cc1cnccc1-c1nc2ccc(C(F)(F)F)cc2nc1C [Example I-66]
Tetranychus urticae
  efficacy (spider mites killed): 90%
[1]; [3]
  logP [a] = log P (HCOOH): 2.15
Aphis gossypii; 100 ppm
  efficacy (kill of aphids): 95%
Myzus persicae; 500 g/ha
  efficacy (aphids killed): 90%

## COc1cnccc1-c1cnc2cc(C(F)(F)F)ccc2n1 [Example I-11]
[1]; pH 2.7
  logP [a] = log P (HCOOH): 2.59
Nilaparvata lugens; 100 ppm
  efficacy (planthoppers killed): 90%
Aphis gossypii; 100 ppm
  efficacy (kill of aphids): 100%
Myzus persicae; 750 g/ha
  efficacy (aphids killed): 90%
Bemisia tabaci
  efficacy (whiteflies killed): 100%

## FC1(F)Oc2cc3nc(Cl)c(-c4ccc(Cl)cc4)nc3cc2O1 [Example I-4, 6-Chloro-7-(4-chlorophenyl)-2,2-difluoro[1,3]dioxolo[4,5-g]quinoxaline]
Haemonchus contortus; 20 ppm
  efficacy (kill of larvae): 80%
[1]; [5]
  chromatographic logP: 5.27

## CCSc1ccccc1-c1cnc2cc3c(cc2n1)OC(F)(F)O3 [Example I-34]
Phaedon cochleariae
  efficacy (beetle larvae killed): 100%
Tetranychus urticae
  efficacy (spider mites killed): 90%
[1]; pH 2.7
  logP [a] = log P (HCOOH): 4.73

## FC(F)(F)c1ccc2nc(-c3ccncc3Cl)cnc2c1 [Example I-10]
[1]; pH 2.7
  logP [a] = log P (HCOOH): 3.27
Aphis gossypii; 20 ppm
  efficacy (kill of aphids): 85%
Myzus persicae; 100 g/ha
  efficacy (aphids killed): 100%

## Cc1cnccc1-c1cnc2cc3c(cc2n1)OC(F)(F)O3 [Example I-32]
Cooperia curticei; 20 ppm
  efficacy (kill of larvae): 80%
Haemonchus contortus; 20 ppm
  efficacy (kill of larvae): 80%
[1]; pH 2.7
  logP [a] = log P (HCOOH): 1.99
[1]; pH 7.8
  logP [b] = log P (neutral): 2.85
Aphis gossypii; 100 ppm
  efficacy (kill of aphids): 90%
Myzus persicae; 500 g/ha
  efficacy (aphids killed): 90%

## Cc1ccccc1-c1cnc2cc(C(F)(F)F)ccc2n1 [Example I-46]
Tetranychus urticae
  efficacy (spider mites killed): 90%
[1]; [3]
  logP [a] = log P (HCOOH): 4.48

## CCS(=O)(=O)c1ccccc1-c1cnc2cc(Cl)ccc2n1 [Example I-29]
[1]; pH 2.7
  logP [a] = log P (HCOOH): 2.81
[1]; pH 7.8
  logP [b] = log P (neutral): 2.82
Spodoptera frugiperda
  efficacy (caterpillars killed): 83%

## CSc1ccccc1-c1cnc2cc(Cl)ccc2n1 [Example I-22]
[1]; pH 2.7
  logP [a] = log P (HCOOH): 4.08
Myzus persicae; 500 g/ha
  efficacy (aphids killed): 90%

## FC(F)(F)c1ccc2nc(-c3cccnc3)cnc2c1 [Example I-8]
Cooperia curticei; 100 ppm
  efficacy (kill of larvae): 100%
Haemonchus contortus; 100 ppm
  efficacy (kill of larvae): 100%
[1]; [3]
  logP [a] = log P (HCOOH): 2.46
[2]
  efficacy (category of AChE inhibition): 84% (84% (60-84% inhibition))

## CCc1cnccc1-c1cnc2cc(C(F)(F)F)ccc2n1 [Example I-26]
Tetranychus urticae
  efficacy (spider mites killed): 90%
[1]; pH 2.7
  logP [a] = log P (HCOOH): 2.53
[1]; pH 7.8
  logP [b] = log P (neutral): 3.28
Nilaparvata lugens; 100 ppm
  efficacy (planthoppers killed): 80%
Bemisia tabaci
  efficacy (whiteflies killed): 96%

## CCSc1ccccc1-c1cnc2cc(C(F)(F)F)ccc2n1 [Example I-14]
Phaedon cochleariae
  efficacy (beetle larvae killed): 100%
Tetranychus urticae
  efficacy (spider mites killed): 100%
[1]; pH 2.7
  logP [a] = log P (HCOOH): 4.80
[1]; pH 7.8
  logP [b] = log P (neutral): 4.78
Spodoptera frugiperda
  efficacy (caterpillars killed): 100%

## CCSc1ccccc1-c1cnc2ccc(C(F)(F)F)cc2n1 [Example I-36]
Phaedon cochleariae
  efficacy (beetle larvae killed): 83%
Tetranychus urticae
  efficacy (spider mites killed): 90%
[1]; pH 2.7
  logP [a] = log P (HCOOH): 4.79
Myzus persicae; 500 g/ha
  efficacy (aphids killed): 90%
Boophilus microplus
  efficacy (laying of fertile eggs): 90%

## Cc1ccsc1-c1cnc2cc(C(F)(F)F)ccc2n1 [Example I-48]
Tetranychus urticae
  efficacy (spider mites killed): 90%
[1]; pH 2.7
  logP [a] = log P (HCOOH): 4.67

## FC(F)(F)c1ccc2nc(-c3cncnc3)cnc2c1 [Example I-12]
Tetranychus urticae
  efficacy (spider mites killed): 90%
[1]; pH 2.7
  logP [a] = log P (HCOOH): 2.33

## CC[S+]([O-])c1ccccc1-c1cnc2cc(C(F)(F)F)ccc2n1 (centres unmarked) [Example I-15]
Phaedon cochleariae
  efficacy (beetle larvae killed): 83%
Tetranychus urticae
  efficacy (spider mites killed): 100%
[1]; pH 2.7
  logP [a] = log P (HCOOH): 2.79
[1]; pH 7.8
  logP [b] = log P (neutral): 2.78
Bemisia tabaci
  efficacy (whiteflies killed): 90%
Spodoptera frugiperda
  efficacy (caterpillars killed): 100%

## CCOc1ncccc1-c1cnc2cc(C(F)(F)F)ccc2n1 [Example I-24]
Tetranychus urticae
  efficacy (spider mites killed): 100%
[1]; pH 2.7
  logP [a] = log P (HCOOH): 4.59

## CCc1cnccc1-c1cnc2cc3c(cc2n1)OC(F)(F)O3 [Example I-1, 6-(3-Ethylpyridin-4-yl)-2,2-difluoro[1,3]dioxolo[4,5-g]quinoxaline]
Tetranychus urticae
  efficacy (spider mites killed): 100%
[1]; [5]
  chromatographic logP: 2.34
[1]; neutral range, pH 7.8, aqueous ammonium hydrogencarbonate/acetonitrile, read-out: logP [b] = log P (neutral)
  chromatographic logP: 3.23
Nilaparvata lugens; 20 ppm
  efficacy (planthoppers killed): 100%
Aphis gossypii; 20 ppm
  efficacy (kill of aphids): 85%
Myzus persicae; 500 g/ha
  efficacy (aphids killed): 90%

## Cc1cnccc1-c1cnc2ccc(C(F)(F)F)cc2n1 [Example I-30]
[1]; pH 2.7
  logP [a] = log P (HCOOH): 2.12
[1]; pH 7.8
  logP [b] = log P (neutral): 2.89
Nilaparvata lugens; 100 ppm
  efficacy (planthoppers killed): 80%
Aphis gossypii; 100 ppm
  efficacy (kill of aphids): 100%
Bemisia tabaci
  efficacy (whiteflies killed): 100%

## Cc1ccc(-c2cnc3ccc(C(F)(F)F)cc3n2)c(F)c1 [Example I-51]
Tetranychus urticae
  efficacy (spider mites killed): 100%
[1]; pH 2.7
  logP [a] = log P (HCOOH): 4.97

## Clc1ccc2nc(-c3cccnc3)cnc2c1 [Example I-40]
Cooperia curticei; 20 ppm
  efficacy (kill of larvae): 90%
[1]; [3]
  logP [a] = log P (HCOOH): 2.01
[1]; [4]
  logP [b] = log P (neutral): 2.43
